According to patent publication US7256187B2, “Rifamycin C-11 oxime derivatives effective against drug-resistant microbes” (Cumbre Pharmaceuticals Inc., priority 2004, dated 2007):
≈ marks a conversion by molar mass, not a printed value. Read-outs that look alike come from different tables or passages of the source.

Assays:
Format in all cases: cell-based
[1] = test system: Streptococcus pneumoniae ATCC6303; assay: MIC, microbroth dilution; conditions: Streptococcus pneumoniae ATCC6303, rifS; read-out: Antimicrobial activity (MIC)
[2] = test system: Haemophilus influenzae ATCC10211; assay: MIC, microbroth dilution; conditions: Haemophilus influenzae ATCC10211, rifS; read-out: Antimicrobial activity (MIC)
[3] = test system: Staphylococcus epidermidis ATCC12228; assay: MIC, microbroth dilution; conditions: Staphylococcus epidermidis ATCC12228, rifS; read-out: Antimicrobial activity (MIC)
[4] = test system: Escherichia coli ATCC25922; assay: MIC, microbroth dilution; conditions: Escherichia coli ATCC25922, rifS; read-out: Antimicrobial activity (MIC)
[5] = test system: Mycobacterium smegmatis ATCC700084; assay: MIC, microbroth dilution; conditions: Mycolicibacterium smegmatis; Mycobacterium smegmatis ATCC700084, rifS; read-out: Antimicrobial activity (MIC)
[6] = test system: Enterococcus faecalis ATCC29212; assay: MIC, microbroth dilution; conditions: Enterococcus faecalis ATCC29212, rifS; read-out: Antimicrobial activity (MIC)
[7] = test system: Gram-negative bacteria (H. influenzae ATCC 10211 and E. coli ATCC 25922); assay: MIC, microbroth dilution, panel of strains; conditions: Haemophilus influenzae; across H. influenzae ATCC 10211 and E. coli ATCC 25922
Experimental: (§1) Representative compounds were assayed for antimicrobial activity as follows: Minimum Inhibitory Concentrations (“MICs”) were determined by the microbroth dilution method as per NCCLS guidelines (National Committee for Clinical Laboratory Standards. 2000. Methods for dilution antimicrobial susceptibility tests for bacteria that grow aerobically, 5th ed. M7-A5. National Committee for Clinical Laboratory Standards, Wayne, Pa.), except that all growth incubations were conducted at 37° C. Bacterial cultures were tested in the following bacteriological media: S. aureus, S. epidermidis, and E. coli in Cation-Adjusted Mueller-Hinton Broth, S. pneumoniae in THY Broth supplemented with 1 mg/mL catalase under 5% CO2 atmosphere, S. pyogenes in THY Broth, E. faecalis in BHI Broth, H. influenzae in BHI Broth supplemented with 0.75 μL of 1 mg/mL NAD and 150 μL of 1 mg/ml hematin per 5 mL, and M. smegmatis in Middlebrook Broth plus ADC Enrichment.
(§2) S. aureus […], S. epidermidis ATCC 12228, S. pneumoniae ATCC6303, S. pyogenes ATCC 19615 and E. faecalis ATCC 29212 are rifampin-susceptible Gram-positive strains. […] The compounds of the current invention show further improved activity against these strains with MICs as low as 0.0002 μg/ml. H. influenzae ATCC 10211 and E. coli ATCC 25922 are Gram-negative bacteria. […]

[8] = MIC, microbroth dilution, panel of strains; conditions: across five rifampin-susceptible Gram-positive strains
Experimental: as §1, §2

[9] = test system: Staphylococcus aureus ATCC29213; assay: MIC, microbroth dilution
[10] = test system: Streptococcus pyogenes ATCC19615; assay: MIC, microbroth dilution; conditions: Streptococcus pyogenes ATCC19615, rifS; read-out: Antimicrobial activity (MIC)
[11] = test system: Staphylococcus aureus ATCC29213 rpoB^D417Y; assay: microbe, parasite or virus in culture
Experimental: as §1
(§3) S. aureus ATCC 29213 RpoB^H418Y is a rifampin-resistant strain with a mutation in the RpoB gene of RNA polymerase. […] S. aureus EN1252a gyrA^S84L grlA^S80F is a quinolone-resistant strain due to double gene mutations of DNA gyrase and topoisomerase IV.

[12] = test system: Staphylococcus aureus ATCC29213 rpoB^H418Y; assay: microbe, parasite or virus in culture
Experimental: as §1, §3

[13] = test system: Staphylococcus aureus EN1252a gyrA^S84L grlA^S80F; assay: microbe, parasite or virus in culture; conditions: read-out: Antimicrobial activity (MIC)
Experimental: as §1, §3

[14] = Staphylococcus aureus ATCC29213, rifS, read-out: Antimicrobial activity (MIC)
[15] = Staphylococcus aureus, ATCC29213
[16] = Staphylococcus aureus, ATCC29213, read-out: Antimicrobial activity (MIC)
[17] = Staphylococcus aureus ATCC29213 rpoB^D417Y, rifR, read-out: Antimicrobial activity (MIC)
[18] = Staphylococcus aureus ATCC29213 rpoB^H418Y, rifR, read-out: Antimicrobial activity (MIC)
[19] = Staphylococcus aureus EN1252a gyrA^S84L grlA^S80F, cipR

SMILES | MIC [1] [µg/mL] | MIC [2] [µg/mL] | MIC [3] [µg/mL] | MIC [4] [µg/mL] | MIC [5] [µg/mL] | MIC [6] [µg/mL] | MIC [7] [µg/mL] | MIC [8] [µg/mL] | MIC [9, 14] [µg/mL] | MIC ([9]; Staphylococcus aureus, ATCC29213, S. aureus ATCC 29213 wild type, read-out: MIC) [µg/mL] | MIC [10] [µg/mL] | MIC [11, 15] [µg/mL] | MIC [11, 16] [µg/mL] | MIC [12, 15] [µg/mL] | MIC [12, 16] [µg/mL] | MIC ([13]; Staphylococcus aureus) [µg/mL] | MIC [11, 17] [µg/mL] | MIC [12, 18] [µg/mL] | MIC [13, 19] [µg/mL]
CO[C@H]1/C=C/O[C@@]2(C)Oc3c(C)c(O)c4c(O)c(c(/C=N/N5CCN(C)CC5)c(O)c4c3C2=O)NC(=O)/C(C)=C\C=C\[C@H](C)[C@H](O)[C@@H](C)[C@@H](O)[C@@H](C)[C@H](OC(C)=O)[C@@H]1C [rifampin, reference compound] | 0.061 (≈ 0.0741 µM) | 0.24 (≈ 0.292 µM) | 0.03 (≈ 0.0365 µM) | 16 (≈ 19.4 µM) | 64 (≈ 77.8 µM) | 1 (≈ 1.22 µM) | 0.24 to 16 (≈ 0.292 to 19.4 µM) | 0.013 to 1 (≈ 0.0158 to 1.22 µM) | 0.008 (≈ 0.00972 µM) | 0.008 (≈ 0.00972 µM) | 0.013 (≈ 0.0158 µM) | > 64 | > 64 | 8 (≈ 9.72 µM) | 8 (≈ 9.72 µM) | 0.004 (≈ 0.00486 µM) |  |  | 
CO[C@H]1/C=C/O[C@@]2(C)Oc3c(C)c(O)c4c(c3/C2=N/OCCN2CCN(C)CC2)C(=O)C=C(NC(=O)/C(C)=C\C=C\[C@H](C)[C@H](O)[C@@H](C)[C@@H](O)[C@@H](C)[C@H](OC(C)=O)[C@@H]1C)C4=O [Example 22, 11-Deoxy-11-[2-(4-methylpiperazin-1-yl)ethoxyimino]rifamycin S] | 0.0002 to 0.125 (≈ 0.000239 to 0.149 µM) | 0.03 to 2 (≈ 0.0358 to 2.39 µM) | 0.0005 to 0.063 (≈ 0.000597 to 0.0753 µM) | 0.125 to 8 (≈ 0.149 to 9.56 µM) | 0.5 to 64 (≈ 0.597 to 76.5 µM) | 2 to 32 (≈ 2.39 to 38.2 µM) |  |  | 0.004 to 0.5 (≈ 0.00478 to 0.597 µM) |  | 0.0005 to 0.063 (≈ 0.000597 to 0.0753 µM) |  |  |  |  |  | 0.25 to 32 (≈ 0.299 to 38.2 µM) | 0.125 to 16 (≈ 0.149 to 19.1 µM) | 0.004 to 0.5 (≈ 0.00478 to 0.597 µM)
CO[C@H]1/C=C/O[C@@]2(C)Oc3c(C)c(O)c4c(c3/C2=N/OCCN2CC(C)NC(C)C2)C(=O)C=C(NC(=O)/C(C)=C\C=C\[C@H](C)[C@H](O)[C@@H](C)[C@@H](O)[C@@H](C)[C@H](OC(C)=O)[C@@H]1C)C4=O (stereo partly shown) [Example 21, 11-Deoxy-11-[2-(3,5-dimethyl-piperazin-1-yl)ethoxyimino]rifamycin S] | 0.0002 to 0.125 (≈ 0.000235 to 0.147 µM) | 0.03 to 2 (≈ 0.0353 to 2.35 µM) | 0.0005 to 0.063 (≈ 0.000588 to 0.074 µM) | 0.125 to 8 (≈ 0.147 to 9.4 µM) | 0.5 to 64 (≈ 0.588 to 75.2 µM) | 2 to 32 (≈ 2.35 to 37.6 µM) |  |  | 0.004 to 0.5 (≈ 0.0047 to 0.588 µM) |  | 0.0005 to 0.063 (≈ 0.000588 to 0.074 µM) |  |  |  |  |  | 0.25 to 32 (≈ 0.294 to 37.6 µM) | 0.125 to 16 (≈ 0.147 to 18.8 µM) | 0.004 to 0.5 (≈ 0.0047 to 0.588 µM)
COCCOCO/N=C1/c2c3c(C)c(O)c4c2C(=O)C=C(NC(=O)/C(C)=C\C=C\[C@H](C)[C@H](O)[C@@H](C)[C@@H](O)[C@@H](C)[C@H](OC(C)=O)[C@H](C)[C@@H](OC)/C=C/O[C@@]1(C)O3)C4=O [Example 10, 11-Deoxy-11-methoxyethoxymethoxyiminorifamycin S] | 0.0002 to 0.125 (≈ 0.00025 to 0.156 µM) | 0.03 to 2 (≈ 0.0376 to 2.5 µM) | 0.0005 to 0.063 (≈ 0.000626 to 0.0789 µM) | 0.125 to 8 (≈ 0.156 to 10 µM) | 0.5 to 64 (≈ 0.626 to 80.1 µM) | 2 to 32 (≈ 2.5 to 40.1 µM) |  |  | 0.004 to 0.5 (≈ 0.00501 to 0.626 µM) |  | 0.0005 to 0.063 (≈ 0.000626 to 0.0789 µM) |  |  |  |  |  | 0.25 to 32 (≈ 0.313 to 40.1 µM) | 0.125 to 16 (≈ 0.156 to 20 µM) | 0.004 to 0.5 (≈ 0.00501 to 0.626 µM)
